Measurements reported in paper PMC3914206.

Legend:
panel of 442 kinases [1] = biological target: T1, panel of 442 kinases (Homo sapiens, UniProt O00444); type: binding; settings: Compound Concentration 10 µM
T1 construct: purchased KINOMEscan
T1 sequence (O00444 1-970): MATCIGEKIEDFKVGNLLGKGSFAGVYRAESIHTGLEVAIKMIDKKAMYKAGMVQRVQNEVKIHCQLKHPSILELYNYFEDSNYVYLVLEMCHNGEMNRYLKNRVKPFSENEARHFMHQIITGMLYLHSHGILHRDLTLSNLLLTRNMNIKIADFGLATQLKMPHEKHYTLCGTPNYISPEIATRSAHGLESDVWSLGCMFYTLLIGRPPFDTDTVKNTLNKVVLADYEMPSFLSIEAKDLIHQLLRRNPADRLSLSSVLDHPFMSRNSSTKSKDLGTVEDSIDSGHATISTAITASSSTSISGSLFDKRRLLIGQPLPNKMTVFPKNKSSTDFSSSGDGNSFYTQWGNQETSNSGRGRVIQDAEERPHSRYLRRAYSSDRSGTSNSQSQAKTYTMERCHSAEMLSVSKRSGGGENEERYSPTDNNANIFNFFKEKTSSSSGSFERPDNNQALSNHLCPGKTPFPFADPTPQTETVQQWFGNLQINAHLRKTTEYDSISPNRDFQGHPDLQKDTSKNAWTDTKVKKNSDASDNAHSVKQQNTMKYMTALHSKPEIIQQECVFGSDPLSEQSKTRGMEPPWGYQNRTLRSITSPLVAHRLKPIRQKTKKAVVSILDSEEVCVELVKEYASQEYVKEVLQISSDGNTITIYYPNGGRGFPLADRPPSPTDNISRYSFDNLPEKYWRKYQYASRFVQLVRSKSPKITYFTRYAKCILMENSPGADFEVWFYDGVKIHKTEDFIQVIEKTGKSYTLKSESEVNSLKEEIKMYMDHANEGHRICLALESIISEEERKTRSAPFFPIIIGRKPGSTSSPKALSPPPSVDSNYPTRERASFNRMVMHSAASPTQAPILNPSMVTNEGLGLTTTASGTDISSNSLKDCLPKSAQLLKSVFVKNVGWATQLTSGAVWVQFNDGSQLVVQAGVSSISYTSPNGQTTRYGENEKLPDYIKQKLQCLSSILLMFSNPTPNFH
Excerpt: (§1) We assessed the selectivity of members of this scaffold using the KINOMEscan methodology across a near comprehensive panel of 442 kinases [[18,27]].

panel of 442 kinases [2] = biological target: T2, panel of 442 kinases (Homo sapiens, UniProt P42336, E545A); type: binding; settings: Compound Concentration 10 µM
T2 construct: purchased KINOMEscan
T2 sequence (P42336 whole entry E545A): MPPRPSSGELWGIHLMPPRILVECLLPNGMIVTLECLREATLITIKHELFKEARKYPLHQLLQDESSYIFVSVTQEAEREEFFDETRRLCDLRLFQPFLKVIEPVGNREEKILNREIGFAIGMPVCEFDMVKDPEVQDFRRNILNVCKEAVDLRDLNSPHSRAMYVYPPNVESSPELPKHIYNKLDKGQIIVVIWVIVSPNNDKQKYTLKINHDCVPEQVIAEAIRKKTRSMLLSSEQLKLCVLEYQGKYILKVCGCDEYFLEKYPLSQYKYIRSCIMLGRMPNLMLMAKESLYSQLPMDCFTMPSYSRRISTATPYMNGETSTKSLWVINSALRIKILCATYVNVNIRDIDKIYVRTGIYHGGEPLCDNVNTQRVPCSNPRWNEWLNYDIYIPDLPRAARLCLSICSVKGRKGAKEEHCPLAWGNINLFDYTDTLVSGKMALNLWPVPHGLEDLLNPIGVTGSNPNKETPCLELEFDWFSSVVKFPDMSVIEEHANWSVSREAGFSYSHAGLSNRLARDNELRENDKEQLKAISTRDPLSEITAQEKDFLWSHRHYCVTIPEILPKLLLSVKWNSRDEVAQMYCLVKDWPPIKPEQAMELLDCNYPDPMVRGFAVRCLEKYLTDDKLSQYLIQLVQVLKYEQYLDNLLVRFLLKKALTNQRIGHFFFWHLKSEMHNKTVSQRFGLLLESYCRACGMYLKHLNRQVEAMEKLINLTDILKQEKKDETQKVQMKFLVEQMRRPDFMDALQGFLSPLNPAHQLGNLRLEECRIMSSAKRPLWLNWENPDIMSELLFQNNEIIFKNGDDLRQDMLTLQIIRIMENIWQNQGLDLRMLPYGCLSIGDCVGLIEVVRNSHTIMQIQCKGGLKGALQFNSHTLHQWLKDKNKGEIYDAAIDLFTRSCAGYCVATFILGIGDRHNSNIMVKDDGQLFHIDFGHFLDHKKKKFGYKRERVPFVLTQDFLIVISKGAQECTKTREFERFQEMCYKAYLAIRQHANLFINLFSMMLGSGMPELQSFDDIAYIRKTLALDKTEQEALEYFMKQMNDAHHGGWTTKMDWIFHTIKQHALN
Excerpt: as §1

Row | Structure (SMILES) | KINOMEscan: PLK4 (panel of 442 kinases [1]) | KINOMEscan: PIK3CA(E545A) (panel of 442 kinases [2])
1 | COc1cc(C(=O)N2CCC(N3CCN(C)CC3)CC2)ccc1Nc1ncc2c(n1)N(C1CCCC1)c1ccccc1C(=O)N2C [Compound 25, 11-cyclopentyl-2-((2-methoxy-4-(4-(4-methylpiperazin-1-yl)piperidine-1-carbonyl)phenyl)amino)-5-methyl-5H-benzo[e]pyrimido[5,4-b][1,4]diazepin-6(11H)-one] | 0.25 | 85
2 | CCOc1cc(C(=O)N2CCC(N3CCN(C)CC3)CC2)ccc1Nc1ncc2c(n1)N(C1CCCC1)c1ccccc1C(=O)N2C [Compound 26] | 5.1 | 91
3 | COc1cc(C(=O)N2CCC(N3CCN(C)CC3)CC2)ccc1Nc1ncc2c(n1)N1CCc3cccc(c31)C(=O)N2C [Compound 24] | 0.3 | 68
4 | COc1cc(C(=O)N2CCC(N3CCN(C)CC3)CC2)ccc1Nc1ncc2c(n1)N(C)c1ccccc1C(=O)N2C [15 (LRRK2-IN-1)] | 0 | 98
